Earlier results, collected in US20090169586A1, “STABLE PACKAGED DOSAGE FORM AND PROCESS THEREFOR” (priority 2006, published 2009).

How the values were obtained:
[1] = system: children exposed to long-term doses of radiation; settings: 40 mg capsules twice daily for 3 months, 709 children
[2] = system: patients with exercise-induced asthma (EIA); settings: daily dose of 64 mg, 38 patients; all placebo patients showed more than 15% FEV1 reduction
[3] = system: skin's protection against sunburn; settings: 24 mg taken for more than 10 weeks
[4] = system: patients with long-standing non-insulin dependent diabetes mellitus (NIDDM); settings: 60 mg/day for 3 weeks, 20 NIDDM patients

CC1=C(/C=C/C(C)=C/C=C/C(C)=C/C=C/C=C(C)/C=C/C=C(C)/C=C/C2=C(C)CCCC2(C)C)C(C)(C)CCC1 [beta-carotene from Dunaliella, beta-carotene]
serum markers for oxidisation [1]: reduced serum markers for oxidisation
patients protected against EIA [2]: 53%
skin's protection against sunburn [3]: double the skin's protection against sunburn
LDL oxidation [4]: normalised high LDL oxidation
